Target: T1, hSK2 channels (Homo sapiens, UniProt P0DP23+Q9H2S1)
T1 construct: expressed in transfected cells; host or cells: HEK293
Experiment: Whole-cell patch-clamp recording of SK2 channel current (SC100)
Type: cell-based
Details: Stimulating Concentration required for increasing the baseline current by 100%; HEK293 cells expressing hSK2; Table 3
Description: The biological activity of certain compounds were determined as follows. The ionic current through small-conductance Ca^2+-activated K^+ channels (SK channels, subtype 2) is recorded using the whole-cell configuration of the patch-clamp technique in a classic patch-clamp set-up using HEK293 tissue culture cells expressing hSK2 channels as described in Kasumu et. al., Chemistry & Biology 19, 1340-1353, Oct. 26, 2012.
The SC100 value determined is defined as the Stimulating Concentration required for increasing the baseline current by 100%.

| SC100 uM | Structure (SMILES) |
| --- | --- |
| ++ (++ means 200 nM-1000 nM) | Cc1cc(C)n(-c2nc(Nc3ccc(F)cc3F)cc(N3CCN[C@@H](C(N)=O)C3)n2)n1 (single isomer, unassigned) [Compound 125, (−)-4-(6-((2,4-difluorophenyl)amino)-2-(3,5-dimethyl-1H-pyrazol-1-yl)pyrimidin-4-yl)piperazine-2-carboxamide] |
| + (+ means >1 uM) | Cc1cc(C)n(-c2nc(Nc3ccc(F)cc3F)cc(N3CCN[C@H](C(N)=O)C3)n2)n1 (single isomer, unassigned) [Compound 128, (+)-4-(6-((2,4-difluorophenyl)amino)-2-(3,5-dimethyl-1H-pyrazol-1-yl)pyrimidin-4-yl)piperazine-2-carboxamide] |
| ++ (++ means 200 nM-1000 nM) | Cc1cc(C)n(-c2cc(N3C[C@@H]4C[C@H]3CN4)nc(Nc3ccc(F)cc3F)n2)n1 (stereo in doubt) [Compound 106, 4-((1S,4S)-2,5-diazabicyclo[2.2.1]heptan-2-yl)-N-(2,4-difluorophenyl)-6-(3,5-dimethyl-1H-pyrazol-1-yl)pyrimidin-2-amine] |
| ++ (++ means 200 nM-1000 nM) | Cc1cc(C)n(-c2cc(N3C[C@@H]4C[C@H]3CN4)nc(Nc3ccc(F)c(F)c3)n2)n1 (stereo in doubt) [Compound 109, 4-((1S,4S)-2,5-diazabicyclo[2.2.1]heptan-2-yl)-N-(3,4-difluorophenyl)-6-(3,5-dimethyl-1H-pyrazol-1-yl)pyrimidin-2-amine] |
| ++ (++ means 200 nM-1000 nM) | CC(=O)N1CCN(c2cc(-n3nc(C)cc3C)nc(Nc3ccc(F)cc3F)n2)CC1 [Compound 104, 1-(4-(2-((2,4-difluorophenyl)amino)-6-(3,5-dimethyl-1H-pyrazol-1-yl)pyrimidin-4-yl)piperazin-1-yl)ethan-1-one] |
| + (+ means >1 uM) | Cc1cc(C)n(-c2cc(N3CC4(COC4)C3)nc(Nc3ccc(F)cc3F)n2)n1 [Compound 107, N-(2,4-difluorophenyl)-4-(3,5-dimethyl-1H-pyrazol-1-yl)-6-(2-oxa-6-azaspiro[3.3]heptan-6-yl)pyrimidin-2-amine] |
| ++ (++ means 200 nM-1000 nM) | Cc1cc(C)n(-c2cc(N3CC4(COC4)C3)nc(Nc3ccc(F)c(F)c3)n2)n1 [Compound 108, N-(3,4-difluorophenyl)-4-(3,5-dimethyl-1H-pyrazol-1-yl)-6-(2-oxa-6-azaspiro[3.3]heptan-6-yl)pyrimidin-2-amine] |
| ++ (++ means 200 nM-1000 nM) | Cc1cc(C)n(-c2cc(N3CCNC(C(N)=O)C3)nc(Nc3ccc(F)cc3F)n2)n1 (stereo not shown) [Compound 110, 4-(2-((2,4-difluorophenyl)amino)-6-(3,5-dimethyl-1H-pyrazol-1-yl)pyrimidin-4-yl)piperazine-2-carboxamide] |

Further lines, the compound ahead of its results:

| Structure (SMILES) | SC100 uM |
| --- | --- |
| Cc1cc(C)n(-c2cc(N3CCOC(C(N)=O)C3)nc(Nc3ccc(F)c(F)c3)n2)n1 (racemic) [Compound 129, 4-(2-((3,4-difluorophenyl)amino)-6-(3,5-dimethyl-1H-pyrazol-1-yl)pyrimidin-4-yl)morpholine-2-carboxamide] | +++ (+++ means <200 nM) |
| Cc1cc(C)n(-c2nc(Nc3ccc(F)c(F)c3)cc(N3CCO[C@@H](CO)C3)n2)n1 (single isomer, unassigned) [Compound 121, (+)-(4-(6-((3,4-difluorophenyl)amino)-2-(3,5-dimethyl-1H-pyrazol-1-yl)pyrimidin-4-yl)morpholin-2-yl) methanol] | +++ (+++ means <200 nM) |
| Cc1cc(C)n(-c2nc(Nc3ccc(F)c(F)c3)cc(N3CCO[C@H](CO)C3)n2)n1 (single isomer, unassigned) [Compound 122, (−)-(4-(6-((3,4-difluorophenyl)amino)-2-(3,5-dimethyl-1H-pyrazol-1-yl)pyrimidin-4-yl)morpholin-2-yl)methanol] | ++ (++ means 200 nM-1000 nM) |
| Cc1cc(C)n(-c2nc(Nc3ccc(Cl)cc3)cc(N[C@H](C)C(N)=O)n2)n1 (single isomer, unassigned) [Compound 123, (+)-2-((6-((4-chlorophenyl)amino)-2-(3,5-dimethyl-1H-pyrazol-1-yl)pyrimidin-4-yl)amino)propanamide] | ++ (++ means 200 nM-1000 nM) |
| Cc1cc(C)n(-c2nc(Nc3ccc(Cl)cc3)cc(N[C@@H](C)C(N)=O)n2)n1 (single isomer, unassigned) [Compound 124, (−)-2-((6-((4-chlorophenyl)amino)-2-(3,5-dimethyl-1H-pyrazol-1-yl)pyrimidin-4-yl)amino)propanamide] | ++ (++ means 200 nM-1000 nM) |
| Cc1cc(C)n(-c2cc(N3CCO[C@H](C(N)=O)C3)nc(Nc3ccc(F)c(F)c3)n2)n1 (single isomer, unassigned) [Compound 131, (+)-4-(2-((3,4-difluorophenyl)amino)-6-(3,5-dimethyl-1H-pyrazol-1-yl)pyrimidin-4-yl)morpholine-2-carboxamide] | +++ (+++ means <200 nM) |
| Cc1cc(C)n(-c2cc(N3CCO[C@@H](C(N)=O)C3)nc(Nc3ccc(F)c(F)c3)n2)n1 (single isomer, unassigned) [Compound 132, (−)-4-(2-((3,4-difluorophenyl)amino)-6-(3,5-dimethyl-1H-pyrazol-1-yl)pyrimidin-4-yl)morpholine-2-carboxamide] | +++ (+++ means <200 nM) |
| CC(=O)N1CCN(c2cc(Nc3ccc(F)c(F)c3)nc(-n3nc(C)cc3C)n2)CC1 [Compound 100, 1-(4-(6-((3,4-difluorophenyl)amino)-2-(3,5-dimethyl-1H-pyrazol-1-yl)pyrimidin-4-yl)piperazin-1-yl)ethan-1-one] | +++ (+++ means <200 nM) |
| CC(=O)N1CCN(c2cc(-n3nc(C)cc3C)nc(Nc3ccc(F)c(F)c3)n2)CC1 [Compound 101, 1-(4-(2-((3,4-difluorophenyl)amino)-6-(3,5-dimethyl-1H-pyrazol-1-yl)pyrimidin-4-yl)piperazin-1-yl)ethan-1-one] | +++ (+++ means <200 nM) |
| CC(=O)N1CCN(c2cc(Nc3ccc(F)cc3)nc(-n3nc(C)cc3C)n2)CC1 [Compound 102, 1-(4-(2-(3,5-dimethyl-1H-pyrazol-1-yl)-6-((4-fluorophenyl)amino)pyrimidin-4-yl)piperazin-1-yl)ethan-1-one] | ++ (++ means 200 nM-1000 nM) |
| CC(=O)N1CCN(c2cc(-n3nc(C)cc3C)nc(Nc3ccc(F)cc3)n2)CC1 [Compound 103, 1-(4-(6-(3,5-dimethyl-1H-pyrazol-1-yl)-2-((4-fluorophenyl)amino)pyrimidin-4-yl)piperazin-1-yl)ethan-1-one] | +++ (+++ means <200 nM) |
| CC(=O)N1CCN(c2cc(Nc3ccc(F)cc3F)nc(-n3nc(C)cc3C)n2)CC1 [Compound 105, 1-(4-(6-((2,4-difluorophenyl)amino)-2-(3,5-dimethyl-1H-pyrazol-1-yl)pyrimidin-4-yl)piperazin-1-yl)ethan-1-one] | ++ (++ means 200 nM-1000 nM) |
| Cc1cc(C)n(-c2nc(Nc3ccc(F)c(F)c3)cc(N3CC4(COC4)C3)n2)n1 [Compound 111, N-(3,4-difluorophenyl)-2-(3,5-dimethyl-1H-pyrazol-1-yl)-6-(2-oxa-6-azaspiro[3.3]heptan-6-yl)pyrimidin-4-amine] | +++ (+++ means <200 nM) |
| Cc1cc(C)n(-c2cc(NC(C)C(N)=O)nc(Nc3ccc(F)c(F)c3)n2)n1 (stereo not shown) [Compound 113, 2-((2-((3,4-difluorophenyl)amino)-6-(3,5-dimethyl-1H-pyrazol-1-yl)pyrimidin-4-yl)amino)propanamide] | ++ (++ means 200 nM-1000 nM) |
